Assay results reported in PMC12344683, “N-alkyl and N-benzyl indoles are anti-SARS-CoV-2 agents and nsp13 inhibitors” (Journal of Enzyme Inhibition and Medicinal Chemistry, 2025).
Where two headings read alike, the source gives them in different places.

Test system: SARS-CoV-2
Assay: microbe, parasite or virus in culture
Type: cell-based, SARS-CoV-2 variant omicron XBB.1.16.11
Conditions: for antiviral activity against SARS-CoV-2 (in words): up to 50 μM
[1] = Severe acute respiratory syndrome coronavirus 2, Vero C1008, read-out: EC50, concentration required to reduce the SARS-CoV-2 replication in Vero cells by 50%
[2] = Severe acute respiratory syndrome coronavirus 2, plaque assay, SARS-CoV-2 in Vero cells, read-out: 95% confidence interval (CI) of EC50

Row | SMILES | EC50 [1] [µM] | EC50 [2] [µM] | antiviral activity against SARS-CoV-2 (in words) (plaque assay)
1 | CC(C)c1ccc(Cn2cc(/C=C/C(=O)/C=C(\O)C(=O)O)c3ccccc32)cc1 [5c] | 9.41 ± 0.91 | 8.54 to 10.4 | 
2 | O=C(/C=C(\O)C(=O)O)/C=C/c1cn(Cc2ccc(OC(F)(F)F)cc2)c2ccccc12 [5e] | 9.4 ± 2.26 | 7.36 to 11.9 | 
3 | N#Cc1ccc(Cn2cc(/C=C/C(=O)/C=C(\O)C(=O)O)c3ccccc32)cc1 [5g, (2Z,5E)-6-(1-(4-cyanobenzyl)-1H-indol-3-yl)-2-hydroxy-4-oxohexa-2,5-dienoic acid] | 14.5 ± 4.2 | 10.9 to 19.3 | 
4 | O=C(/C=C(\O)C(=O)O)/C=C/c1cn(Cc2ccc(F)cc2)c2ccc(Cl)cc12 [5i, (2Z,5E)-6-(5-chloro-1-(4-fluorobenzyl)-1H-indol-3-yl)-2-hydroxy-4-oxohexa-2,5-dienoic acid] | 6.77 ± 1.17 | 5.69 to 8.03 | 
5 | CCOC(=O)/C(O)=C/C(=O)/C=C/c1cn(Cc2ccc(OC(F)(F)F)cc2)c2ccccc12 [6e] | 50 |  | low activity
6 | CCOC(=O)/C(O)=C/C(=O)c1cn(Cc2ccc(F)cc2)c2ccccc12 [8d, Ethyl (Z)-4-(1-(4-fluorobenzyl)-1H-indol-3-yl)-2-hydroxy-4-oxobut-2-enoate] | > 50 |  | not showed any antiviral activity up to the maximum concentration tested
7 | CC(C)=Cn1cc(/C=C/C(=O)/C=C(\O)C(=O)O)c2ccccc21 [9c, (2Z,5E)-2-hydroxy-6-(1-(2-methylprop-1-en-1-yl)-1H-indol-3-yl)-4-oxohexa-2,5-dienoic acid] | 4.23 ± 0.96 | 3.33 to 5.26 | 
